Test results: patent US20250017841A1, “COMPOUND CONTAINING ASCORBIC ACID DERIVATIVE” (DR'S CHOICE CO., LTD., priority 2021, published 2025)
Structures can show the parent of a compound that is named as a salt.

What was measured:
Format in all cases: physicochemical
[1] = Example 1: degree of browning (chromaticity) on storage with added glycine; conditions: 1.5% solution, room temperature
Procedure: (Effect of addition of ascorbic acid 2-glucoside arginine salt on change in degree of browning (chromaticity) of ascorbic acid by addition of amino acid) 100 ml of water was taken to dissolve 1.5% of ascorbic acid (ASA), and the solution was adjusted to pH 5.0 with a 1M of sodium hydroxide solution to obtain a test solution. Ascorbic acid 2-glucoside arginine salt (ASA2-G⋅Arg) is used as a test solution by dissolving 1.5% of the product of Production Example 1 in 100 ml of water. To each test solution, 0.2% glycine was added and dissolved to prepare a solution, and the solution was stored (at room temperature) for 20 months. This test solution was collected every designated month, the absorption spectrum (wavelength: 480 nm) was measured, the degree of browning (chromaticity) was evaluated, and the results are shown in FIG. 3.
At time 0, the initial state immediately after the preparation was visually observed. In the other designated months, a spectrophotometer (absorption spectrum: wavelength 480 nm) was used for the measurement. In the case of ascorbic acid, browning started to occur at 4 months, transparency was visually observed, and light brown color remarkably appeared at 14 months. Meanwhile, in the ASA2-G⋅Arg added system, the initial state was confirmed.

[2] = Example 2: degree of browning (chromaticity) on storage with added amino acid mixture; conditions: 4% solution, room temperature
Procedure: 4% of ascorbic acid (ASA) is dissolved in 200 ml of water, and the solution is adjusted to pH 5.0 with a 1M sodium hydroxide solution to obtain a test solution. Ascorbic acid 2-glucoside lysine salt (ASA2-G⋅Lys) (Production Example 2) is dissolved in the same manner by 4% to prepare a test solution. An amino acid mixture (histidine 1.5%, alanine 1.28, leucine 2.6%) was added to and dissolved in each test solution, and the solution was stored (at room temperature) for 20 months. Each test solution was collected every designated month, the absorption spectrum (wavelength: 480 nm) was measured, the degree of browning (chromaticity) was evaluated, and the results are shown in FIG. 4.

[3] = Test system: browning of ascorbic acid caused by addition of an amino acid; conditions: 10 days after production
Procedure: For a reaction solution of ascorbic acid (1%) and amino acid (0.12%), the difference in degree of browning (chromaticity) based on the type of amino acid was examined for a 10 mM of phosphate citrate buffer solution pH 7.0. • Measurement wavelength: 480 nm, measurement time: 10 days after production

degree of browning (chromaticity) ([3]; ascorbic acid 1% + amino acid 0.12% (glycine, histidine, lysine or alanine), 10 mM phosphate citrate buffer pH 7.0, 480 nm) | degree of browning ([3]; ascorbic acid 1% + glycine or histidine 0.12%, pH 7.0, 480 nm) | time at which browning started to occur ([1]; pH 5.0, 0.2% glycine) [months] | time at which light brown color remarkably appeared ([1]; pH 5.0, 0.2% glycine) [months] | time after which browning appeared ([2]; pH 5.0, amino acid mixture (histidine, alanine, leucine)) [months] | Compound | appearance (transparency), visual observation ([1]; 0.2% glycine, 20 months) | absorbance (Abs) in the absorption spectrum ([1]; 480 nm, 0.2% glycine, 20 months) | appearance (color) ([2]; amino acid mixture, 20 months) | absorbance (Abs) of the absorption spectrum ([2]; 480 nm, amino acid mixture, 20 months)
 |  |  |  |  | O=C1OC([C@@H](O)CO)C(O)=C1OC1O[C@H](CO)[C@@H](O)[C@H](O)[C@H]1O (stereo partly shown) [ASA2-G⋅Arg, ascorbic acid 2-glucoside arginine salt] | initial state | 0.01 |  | 
 |  |  |  |  | O=C1OC([C@@H](O)CO)C(O)=C1OC1O[C@H](CO)[C@@H](O)[C@H](O)[C@H]1O (stereo partly shown) [ASA2-G⋅Lys, ascorbic acid 2-glucoside lysine salt] |  |  | extremely light reddish brown color | 0.017
high | remarkable | 4 | 14 | 4 | O=C1O[C@H]([C@@H](O)CO)C(O)=C1O [ascorbic acid, (R)-3,4-dihydroxy-5-((S)-1,2-dihydroxyethyl) furan-2 (5H)-one] |  |  | reddish brown color | 
